Values joined by “and” are separate entries in the source; they are usually repeats but may differ in a detail not shown here. Identical values can stand only once.
Experiments:
Assay type in all cases: in vivo
[1] = test system: sunflower, Melody variety; experiment: Sunflower seed soaking, field plots (Example XI); conditions: for % Moist: control 12.53; for Wt at 6% Moist: control 60.74; for Wt. at 6 % Moist: normalized to 6% seed moisture content
Text: In this preferred embodiment of the present invention, sunflower seeds were selected from the Melody variety and were soaked for three hours in solutions containing 0.05% Tween 20 and BMTA or BMPA, at a concentration of 3 ppm. Another group of seeds of the same variety was soaked in a solution with only in 0.05% Tween 20 added (control). Following soaking, seeds were desiccated to storage moisture contents and BMTA, BMPA and control seeds were sown in three twenty-five foot plots (Reps) each on May 21 (plots were arranged in a randomized block design). On September 16, sunflower heads were harvested, with a harvest of around 20 heads per plot/Rep on average. The heads were hand-threshed to collect seeds. Moisture, count, and weight data was collected on seeds from each head.

‘M-202’ type rice = experiment: Rice seed soaking treatment, 24 hours (Example II); conditions: for Biomass / Height / Tillering: 24 hrs soak, tap water irrigation, vs Set 1 (water)
Protocol: In this preferred embodiment of the present invention, seeds are soaked in prepared bio-regulator solutions for a period of 24 hours. Rice seeds were selected from the same ‘M-202’ type grains as in the previous study. The bio-regulator solutions were prepared using 5 ppm BMPA solution. The solution was drained and seeds planted in starter plastic containers filled with potting soil. After germination and plant growth reaching height of four inches, rice seedlings were transplanted from their greenhouse containers to six-inch diameter plastic containers and placed outdoor. Again, two sets of three pots for the control and test group were used.
These studies were also carried out using an increased amount of BMPA. The amount was increased from 1 ppm to 5 ppm, and the results of the study were similar to the results outlined in the paragraph above.

[2] = test system: aphid infestation on cotton Bt plant; experiment: Cotton Bt seed soaking, aphid infestation (Example VII)
Protocol: In this preferred embodiment of the present invention, seeds were soaked for a period of 3 hours in the bio-regulator solution. Cotton Bt were selected and studied to determine if bio-regulator chemistry will enhance or influence the inserted Bt genes of the transgenic plant. The seeds were separated into two different sets on July 2. The first set, Set 1, was soaked in 5 ppm BMPA solution with 0.05% Kinetic®. The second set, Set 2, was soaked in water with 0.05% v/v Kinetic®. The solution was drained and the treated seeds planted in starter plastic trays. After germination and after the seedlings reached the height of four inches, the cotton Bt plants were transplanted into larger six-inch plastic containers. The cotton plants were placed outdoors for the duration of the study. The different sets of plants were regularly observed throughout this study.

[3] = test system: ‘M-202’ medium-grain rice (Oryza sativa L.); experiment: Rice seed soaking treatment with NaCl irrigation (Example I)
Protocol: In another preferred embodiment of the present invention, seeds are soaked in prepared bio-regulator solutions for a period of three hours. Rice seeds were selected from ‘M-202’ medium-grain rice (Oryza sativa L.), (Reg. no 72) PI494105 type grains; this selection was meant to represent a typical California rice seed, and was not meant to be limiting. The bio-regulator solutions are prepared using 5 ppm BMTA solution with 0.05% v/v Kinetic® made by Helena Chemical Company. The solution was drained and the seeds planted in starter plastic containers with potting soil. After germination and having grown to 4 inches in height, the plants were transplanted into 6 inch diameter plastic containers. Two sets of three pots each were set up for this study; one set for the test group and one set for the control group. Both the control and test studies were irrigated with 1500 ppm NaCl solution from time of planting until the study was completed. The purpose of the NaCl irrigation was to determine the effect of the bio-regulator treatment in regards to salt tolerances.

geranium slips = experiment: Treatment of geranium slips (Example III)
Protocol: In this preferred embodiment of the present invention, according to common geranium cutting means, geraniums were slipped into 18 slips of similar length. In this example the slips had no flower buds. The slips were separated into four different sets: three slips each in three of the sets, and then nine slips in the final set. The slips are then treated with bio-regulator solutions formed from compositions from the different groups and water. In the first set, the slips were treated with BMVE solution; in the second set, the slips were treated with BMTA solution; in the third set, the slips were treated with BMIA in bromide solution; and, in the fourth set, the nine slips were treated with water.
The treatment with bio-regulator solution preferably occurs in the initial planting of the geranium slips, but can also occur at any time from the forming of the geranium slips up to and including the transplanting of the slips. The treatment can occur after transplanting, but this is not the preferred method. […]
The study associated with this embodiment is summarized in Table 3-A below, where Set 1 is the control group and Set 2 is the test group. […] The ratios for Table 3-C are calculated by totaling the heights grown by each slip in each set and comparing it to the control counterpart that was grown in similar environmental conditions, without the treatment of the bio-regulator solutions. […]

[4] = mean over the three Reps, control 65.47
[5] = mean over the three Reps, control 1062
[6] = mean over the three Reps, control 2676
[7] = per Rep (plot), 3 ppm, three hours soak
[8] = per Rep, estimate based on planting rate of 20,000 seeds/acre
[9] = BMTA soln. 5 ppm, 3 hours seed soak, NaCl soln. irrigation, vs Set 1 (tap water)

In the case of `CN(CCOC(=O)COc1ccccc1)Cc1ccccc1` [BMPA], the “% Moist” value ([1]; mean over the three Reps) is reported as 13.27%, the “Wt at 6% Moist” value ([1]; mean over the three Reps) is reported as 64.29 and the “Fresh Seed Wt.” value [1, 4] is reported as 69.75 g. The “Seed Count” value [1, 5] was 1071, the “Yield @ 20,000 Plants/Acre” value [1, 6] was 2832 lbs and the “% Moist (seed moisture content)” value [1, 7] was 13.52% and 13.93% and 12.37%. For the same compound, the “Fresh Seed Wt.” value [1, 7] was 78.24 gm and 65.01 gm and 65.99 gm, the “Seed Count” value [1, 7] was 1185 and 977 and 1052 and the “Yield @ 20,000 Plants/Acre” value [1, 8] was 3171 lbs and 2617 lbs and 2708 lbs. For the same compound, the “Wt. at 6 % Moist” value ([1]; per Rep) was 71.99 and 59.42 and 61.46, the “Observed growth from planting through completion of the study” value (‘M-202’ type rice; 5 ppm BMPA, 24 hours soak) was “enhanced growth” and the Biomass (‘M-202’ type rice; BMPA 1 ppm) was ~4 x Set 1. For the same compound, the Height (‘M-202’ type rice; BMPA 1 ppm) was ~1.2 x Set 1, the Tillering (‘M-202’ type rice; BMPA 1 ppm) was ~4 x Set 1 and the Biomass (‘M-202’ type rice; BMPA 5 ppm) was ~4 x Set 1. The Height (‘M-202’ type rice; BMPA 5 ppm) was ~1.2 x Set 1, the Tillering (‘M-202’ type rice; BMPA 5 ppm) was ~4 x Set 1 and the “Delay of the infestation of aphids on the cotton Bt plant” value ([2]; 5 ppm BMPA seed soak vs untreated) was ≤ 19 days. For the same compound, the “Aphid infestation, Treated” value ([2]; 47 days after planting, 5 ppm BMPA, 3 hrs seed soak, control L-Aphid) was “No Aphid”, the “Aphid infestation, Treated” value ([2]; 55 days after planting, control H-Aphid) was “No Aphid” and the “Aphid infestation, Treated” value ([2]; 57 days after planting, control H-Aphid) was “L-Aphid”. For the same compound, the “Aphid infestation, Treated” value ([2]; 74 days after planting, control Stressed) was “M-Aphid”.
`Cc1ccc(C(=O)OCCN(C)Cc2ccccc2)cc1` [BMTA] was tested, and the “Observed growth from planting through completion of the study” value ([3]; 5 ppm BMTA, 1500 ppm NaCl irrigation) was “enhanced growth”, the Biomass [3, 9] was ~3 x Set 1 and the Height [3, 9] was “Same”. For the same compound, the Tillering [3, 9] was ~3 x Set 1, the “% Moist” value ([1]; mean over the three Reps) was 13.64% and the “Wt at 6% Moist” value ([1]; mean over the three Reps) was 65.08. The “Fresh Seed Wt.” value [1, 4] was 70.85 g, the “Seed Count” value [1, 5] was 1108 and the “Yield @ 20,000 Plants/Acre” value [1, 6] was 2867 lbs. The “% Moist (seed moisture content)” value [1, 7] was 13.10% and 13.01% and 14.82%, the “Fresh Seed Wt.” value [1, 7] was 77.35 gm and 73.58 gm and 61.64 gm and the “Seed Count” value [1, 7] was 1226 and 1157 and 942. For the same compound, the “Yield @ 20,000 Plants/Acre” value [1, 8] was 3147 lbs and 2989 lbs and 2464 lbs, the “Wt. at 6 % Moist” value ([1]; per Rep) was 71.43 and 67.86 and 55.94 and the “% of Control” value (geranium slips; Day 11, total height vs water control slips) was 186.49%. The “% of Control” value (geranium slips; Day 27, total height vs water control slips) was 162.26%.

Reference: patent publication US8999890B2, “Signaling compositions, methods, and systems for effecting plant burndown and herbicide enhancement” (KamTec, priority 2013, dated 2015)
